Reference: patent US10988478B1, “Pyrazolo[1,5a]pyrimidine derivatives as IRAK4 modulators” (Genentech, Inc., priority 2015, dated 2021)

Target: human IRAK4 (Homo sapiens (Human), UniProt Q9NWZ3)
Test: IRAK4 kinase inhibition, Transcreener fluorescence polarization ADP assay
Type: biochemical
Settings: recombinant full-length His6-IRAK4; 125 uM ATP; 90 min; Ki computed using ATP Km 642 uM
Description: Compounds were assayed for inhibition of human IRAK4 and IRAK1 catalytic activity using recombinant enzyme produced from insect cells. Full-length IRAK4 protein, carrying an N-terminal His6-Tag, was obtained from Life Technologies (Carlsbad, Calif., USA). The IRAK1 construct was produced internally and was comprised of IRAK1 residues Arg194 to Ser712, preceded by an NH2-terminal His6 tag and the coding sequence for glutathione-S-transferase.

Chain of human IRAK4 (Q9NWZ3 whole entry): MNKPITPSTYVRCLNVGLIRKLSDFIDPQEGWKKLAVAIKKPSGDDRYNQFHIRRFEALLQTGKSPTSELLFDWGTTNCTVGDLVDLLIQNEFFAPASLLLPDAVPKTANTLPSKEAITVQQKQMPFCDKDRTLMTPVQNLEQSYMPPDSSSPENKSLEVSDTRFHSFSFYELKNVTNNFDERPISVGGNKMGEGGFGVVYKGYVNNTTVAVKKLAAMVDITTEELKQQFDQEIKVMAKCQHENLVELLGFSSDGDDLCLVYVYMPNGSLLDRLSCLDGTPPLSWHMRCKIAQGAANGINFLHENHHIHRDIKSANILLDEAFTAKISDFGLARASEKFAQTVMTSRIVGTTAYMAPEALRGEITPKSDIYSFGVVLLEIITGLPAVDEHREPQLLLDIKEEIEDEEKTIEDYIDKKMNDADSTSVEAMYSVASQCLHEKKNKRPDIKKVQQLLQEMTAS

Row | Structure (SMILES) | Ki
1 | CNC(=O)[C@@]1(C)Cc2cc(NC(=O)c3cnn4cccnc34)c(N3CCOCC3)cc2O1 [Example 49, (R)—N-(2-Methyl-2-(methylcarbamoyl)-6-morpholino-2,3-dihydrobenzofuran-5-yl)pyrazolo[1,5-a]pyrimidine-3-carboxamide] | 22 nM
2 | C[C@]1(C(F)F)Cc2cc(NC(=O)c3cnn4cccnc34)c(N3CCOCC3)cc2O1 [Example 50, (R)—N-(2-(Difluoromethyl)-2-methyl-6-morpholino-2,3-dihydrobenzofuran-5-yl)pyrazolo[1,5-a]pyrimidine-3-carboxamide] | 6.2 nM
3 | C[C@@]1(C(F)F)Cc2cc(NC(=O)c3cnn4cccnc34)c(N3CCOCC3)cc2O1 [Example 51, (S)—N-(2-(Difluoromethyl)-2-methyl-6-morpholino-2,3-dihydrobenzofuran-5-yl)pyrazolo[1,5-a]pyrimidine-3-carboxamide] | 9.6 nM
4 | Cc1cnc2c(C(=O)Nc3cc4c(cc3N3CCC(C(C)(C)O)CC3)O[C@@](C)(CO)C4)cnn2c1 [Example 52, (R)—N-(2-(Hydroxymethyl)-6-(4-(2-hydroxypropan-2-yl)piperidin-1-yl)-2-methyl-2,3-dihydrobenzofuran-5-yl)-6-methylpyrazolo[1,5-a]pyrimidine-3-carboxamide] | 3.8 nM
5 | Cc1cnc2c(C(=O)Nc3cc4c(cc3N3CCC(C(C)(C)O)CC3)O[C@](C)(CO)C4)cnn2c1 [Example 53, (S)—N-(2-(Hydroxymethyl)-6-(4-(2-hydroxypropan-2-yl)piperidin-1-yl)-2-methyl-2,3-dihydrobenzofuran-5-yl)-6-methylpyrazolo[1,5-a]pyrimidine-3-carboxamide] | 2.7 nM
6 | C[C@]1(CO)Cc2cc(NC(=O)c3cnn4cc(F)cnc34)c(N3CCOCC3)cc2O1 [Example 54, (R)-6-Fluoro-N-(2-(hydroxymethyl)-2-methyl-6-morpholino-2,3-dihydrobenzofuran-5-yl)pyrazolo[1,5-a]pyrimidine-3-carboxamide] | 16 nM
7 | C[C@@]1(CO)Cc2cc(NC(=O)c3cnn4cc(F)cnc34)c(N3CCOCC3)cc2O1 [Example 55, (S)-6-Fluoro-N-(2-(hydroxymethyl)-2-methyl-6-morpholino-2,3-dihydrobenzofuran-5-yl)pyrazolo[1,5-a]pyrimidine-3-carboxamide] | 34 nM
8 | C[C@@]1(CO)Cc2cc(NC(=O)c3cnn4cccnc34)c(N3CC[C@H](F)C3)cc2O1 [Example 56, N-[(2S)-6-[(3S)-3-Fluoropyrrolidin-1-yl]-2-(hydroxymethyl)-2-methyl-3H-benzofuran-5-yl]pyrazolo[1,5-a]pyrimidine-3-carboxamide] | 21 nM
9 | C[C@]1(CO)Cc2cc(NC(=O)c3cnn4cccnc34)c(N3CC[C@H](F)C3)cc2O1 [Example 57, N-[(2R)-6-[(3S)-3-Fluoropyrrolidin-1-yl]-2-(hydroxymethyl)-2-methyl-3H-benzofuran-5-yl]pyrazolo[1,5-a]pyrimidine-3-carboxamide] | 60 nM
10 | C[C@]1(CO)Cc2cc(NC(=O)c3cnn4cccnc34)c(N3CC[C@@H](F)C3)cc2O1 [Example 58, N-[(2R)-6-[(3R)-3-Fluoropyrrolidin-1-yl]-2-(hydroxymethyl)-2-methyl-3H-benzofuran-5-yl]pyrazolo[1,5-a]pyrimidine-3-carboxamide] | 36 nM
11 | C[C@@]1(CO)Cc2cc(NC(=O)c3cnn4cccnc34)c(N3CC[C@@H](F)C3)cc2O1 [Example 59, N-[(2S)-6-[(3R)-3-Fluoropyrrolidin-1-yl]-2-(hydroxymethyl)-2-methyl-3H-benzofuran-5-yl]pyrazolo[1,5-a]pyrimidine-3-carboxamide] | 9.6 nM
12 | CC1(C)Cc2cc(NC(=O)c3cnn4cccnc34)c(N3CCN(CCO)CC3)cc2O1 [Example 60, N-[6-[4-(2-Hydroxyethyl)piperazin-1-yl]-2,2-dimethyl-3H-benzofuran-5-yl]pyrazolo[1,5-a]pyrimidine-3-carboxamide] | 6.6 nM
13 | CC1(C)Cc2cc(NC(=O)c3cnn4cc(C5CC5)cnc34)c(N3CCOCC3)cc2O1 [Example 61, 6-Cyclopropyl-N-(2,2-dimethyl-6-morpholino-3H-benzofuran-5-yl)pyrazolo[1,5-a]pyrimidine-3-carboxamide] | 35 nM
14 | CC1(C)Cc2cc(NC(=O)c3cnn4cccnc34)c(C3CCNCC3)cc2O1 [Example 62, N-[2,2-Dimethyl-6-(4-piperidyl)-3H-benzofuran-5-yl]pyrazolo[1,5-a]pyrimidine-3-carboxamide] | 260 nM
15 | CN1CCC(c2cc3c(cc2NC(=O)c2cnn4cccnc24)CC(C)(C)O3)CC1 [Example 63, N-[2,2-Dimethyl-6-(1-methyl-4-piperidyl)-3H-benzofuran-5-yl]pyrazolo[1,5-a]pyrimidine-3-carboxamide] | 390 nM
16 | CC1(C)Cc2cc(NC(=O)c3cnn4cccnc34)c(O[C@H]3CC[C@@H](O)CC3)cc2O1 [Example 64, Cis-N-[6-(4-hydroxycyclohexoxy)-2,2-dimethyl-3H-benzofuran-5-yl]pyrazolo[1,5-a]pyrimidine-3-carboxamide] | 8.7 nM

Row | Structure (SMILES) | Ki
17 | CC1(C)Cc2cc(NC(=O)c3cnn4cccnc34)c(O[C@H]3CC[C@H](O)CC3)cc2O1 [Example 65, Trans-N-[6-(4-hydroxycyclohexoxy)-2,2-dimethyl-3H-benzofuran-5-yl]pyrazolo[1,5-a]pyrimidine-3-carboxamide] | 9.2 nM
18 | C[C@]1(CO)Cc2cc(NC(=O)c3cnn4cccnc34)c(N3CCC(F)(F)C3)cc2O1 [Example 66, N-[(2R)-6-(3,3-Difluoropyrrolidin-1-yl)-2-(hydroxymethyl)-2-methyl-3H-benzofuran-5-yl]pyrazolo[1,5-a]pyrimidine-3-carboxamide] | 24 nM
19 | C[C@@]1(CO)Cc2cc(NC(=O)c3cnn4cccnc34)c(N3CCC(F)(F)C3)cc2O1 [Example 67, N-[(2S)-6-(3,3-Difluoropyrrolidin-1-yl)-2-(hydroxymethyl)-2-methyl-3H-benzofuran-5-yl]pyrazolo[1,5-a]pyrimidine-3-carboxamide] | 4.4 nM
20 | CC1(C)Cc2cc(NC(=O)c3cnn4cccnc34)c(N3CC(O)C(F)(F)C3)cc2O1 (centres unmarked) [Example 68, N-(6-(3,3-Difluoro-4-hydroxypyrrolidin-1-yl)-2,2-dimethyl-2,3-dihydrobenzofuran-5-yl)pyrazolo[1,5-a]pyrimidine-3-carboxamide] | 9.8 nM
21 | CC1(C)Cc2cc(NC(=O)c3cnn4cc(C(F)(F)F)cnc34)c(N3CCOCC3)cc2O1 [Example 69, N-(2,2-Dimethyl-6-morpholino-2,3-dihydrobenzofuran-5-yl)-6-(trifluoromethyl)pyrazolo[1,5-a]pyrimidine-3-carboxamide] | 27 nM
22 | CC1(C)Cc2cc(NC(=O)c3cnn4cccnc34)c(OCC(F)(F)F)cc2O1 [Example 70, N-[2,2-Dimethyl-6-(2,2,2-trifluoroethoxy)-3H-benzofuran-5-yl]pyrazolo[1,5-a]pyrimidine-3-carboxamide] | 28 nM
23 | C[C@]1(CO)Cc2cc(NC(=O)c3cnn4cccnc34)c(C(F)(F)F)cc2O1 [Example 71, N-[(2R)-2-(Hydroxymethyl)-2-methyl-6-(trifluoromethyl)-3H-benzofuran-5-yl]pyrazolo[1,5-a]pyrimidine-3-carboxamide] | 920 nM
24 | C[C@@]1(CO)Cc2cc(NC(=O)c3cnn4cccnc34)c(C(F)(F)F)cc2O1 [Example 72, N-[(2S)-2-(hydroxymethyl)-2-methyl-6-(trifluoromethyl)-3H-benzofuran-5-yl]pyrazolo[1,5-a]pyrimidine-3-carboxamide] | 450 nM
25 | C[C@@]1(CO)Cc2cc(NC(=O)c3cnn4cccnc34)c(C(F)F)cc2O1 [Example 73, N-[(2S)-6-(Difluoromethyl)-2-(hydroxymethyl)-2-methyl-3H-benzofuran-5-yl]pyrazolo[1,5-a]pyrimidine-3-carboxamide] | 360 nM
26 | C[C@]1(CO)Cc2cc(NC(=O)c3cnn4cccnc34)c(C(F)F)cc2O1 [Example 74, N-[(2R)-6-(difluoromethyl)-2-(hydroxymethyl)-2-methyl-3H-benzofuran-5-yl]pyrazolo[1,5-a]pyrimidine-3-carboxamide] | 750 nM
27 | CC1(CO)Cc2cc(NC(=O)c3cnn4cc(C(F)F)cnc34)c(N3CCOCC3)cc2O1 (centres unmarked) [Example 75, 6-(Difluoromethyl)-N-[2-(hydroxymethyl)-2-methyl-6-morpholino-3H-benzofuran-5-yl]pyrazolo[1,5-a]pyrimidine-3-carboxamide] | 65 nM
28 | C[C@]1(C(F)(F)F)Cc2cc(NC(=O)c3cnn4cccnc34)c(N3CCOCC3)cc2O1 [Example 76, (R)—N-(2-Methyl-6-morpholino-2-(trifluoromethyl)-2,3-dihydrobenzofuran-5-yl)pyrazolo[1,5-a]pyrimidine-3-carboxamide] | 25 nM
29 | C[C@@]1(C(F)(F)F)Cc2cc(NC(=O)c3cnn4cccnc34)c(N3CCOCC3)cc2O1 [Example 77, (S)—N-(2-methyl-6-morpholino-2-(trifluoromethyl)-2,3-dihydrobenzofuran-5-yl)pyrazolo[1,5-a]pyrimidine-3-carboxamide] | 13 nM
30 | C[C@]1(CO)Cc2cc(NC(=O)c3cnn4cccnc34)c(N3CCOCC3)c(Cl)c2O1 [Example 80, (R)—N-(7-Chloro-2-(hydroxymethyl)-2-methyl-6-morpholino-2,3-dihydrobenzofuran-5-yl)pyrazolo[1,5-a]pyrimidine-3-carboxamide] | 34 nM
31 | C[C@@]1(CO)Cc2cc(NC(=O)c3cnn4cccnc34)c(N3CCOCC3)c(Cl)c2O1 [Example 81, (S)—N-(7-chloro-2-(hydroxymethyl)-2-methyl-6-morpholino-2,3-dihydrobenzofuran-5-yl)pyrazolo[1,5-a]pyrimidine-3-carboxamide] | 100 nM
32 | CC1(C)COc2cc(N3CCOCC3)c(NC(=O)c3cnn4cccnc34)cc2N1 [Example 82, N-(3,3-Dimethyl-7-morpholino-3,4-dihydro-2H-benzo[b][1,4]oxazin-6-yl)pyrazolo[1,5-a]pyrimidine-3-carboxamide] | 190 nM
